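48-hour exposure; five concentrations; linearly interpolated endpoints. At the GI50, growth is halved.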 Calls of active or inactive are those of the source. Rule as the data show it: active = GI50 up to about 1.1 µM and inactive = higher.
Key:
Test in all cases: DTP human tumour cell line panel, 48 h
786-0 = test system: 786-0
EKVX = test system: EKVX
HCC 2998 = test system: HCC 2998
HCT-116 = test system: HCT-116
HCT-15 = test system: HCT-15
HOP-92 = test system: HOP-92
HT-29 = test system: HT-29
LOX IMVI = test system: LOX IMVI
MCF7 = test system: MCF7
MDA-MB-231 = test system: MDA-MB-231
Malme-3M = test system: Malme-3M
NCI-H460 = test system: NCI-H460
NCI/ADR-RES = test system: NCI/ADR-RES
OVCAR-3 = test system: OVCAR-3
SF-539 = test system: SF-539
SK-MEL-5 = test system: SK-MEL-5
SNB-19 = test system: SNB-19
SNB-75 = test system: SNB-75
UACC-257 = test system: UACC-257
UACC-62 = test system: UACC-62

Compound	GI50 (786-0)	GI50 (EKVX)	GI50 (HCC 2998)	GI50 (HCT-116)	GI50 (HCT-15) [µM]	GI50 (HOP-92)	GI50 (HT-29)	GI50 (LOX IMVI)	GI50 (MCF7)	GI50 (MDA-MB-231)	GI50 (Malme-3M)	GI50 (NCI-H460)	GI50 (NCI/ADR-RES)	GI50 (OVCAR-3)	GI50 (SF-539)	GI50 (SK-MEL-5)	GI50 (SNB-19)	GI50 (SNB-75)	GI50 (UACC-257)	GI50 (UACC-62)
COc1ccccc1/C=C1\CCC(CN(C)C)C1=O (stereo not given)	2.16 µM (inactive)	15 µM (inactive)	5.21 µM (inactive)	3.48 µM (inactive)	2.75	2.99 µM (inactive)	4.89 µM (inactive)	2.14 µM (inactive)	2.12 µM (inactive)	2.43 µM (inactive)	6.19 µM (inactive)	19.6 µM (inactive)	7.24 µM (inactive)	5.38 µM (inactive)	7.41 µM (inactive)	12.4 µM (inactive)	17.1 µM (inactive)	8.49 µM (inactive)	10.8 µM (inactive)	4.21 µM (inactive)
CCOc1ccc2nc3nc(O)nc(C)c3c(NC(C)(CO)CO)c2c1	> 100 µM (inactive)	> 100 µM (inactive)	> 100 µM (inactive)	> 100 µM (inactive)	> 100	> 100 µM (inactive)	> 100 µM (inactive)	> 100 µM (inactive)	4.08 µM (inactive)	> 100 µM (inactive)	> 100 µM (inactive)	> 100 µM (inactive)	> 100 µM (inactive)	> 100 µM (inactive)	> 100 µM (inactive)	> 100 µM (inactive)	> 100 µM (inactive)	> 100 µM (inactive)	> 100 µM (inactive)	> 100 µM (inactive)
CN(C)CCNC(=O)c1c(O)ccc2c1c1c(n2CCc2ccccc2)C(=O)c2ccccc2C1=O	4.36 µM (inactive)	14.6 µM (inactive)	1.22 µM (inactive)	3.6 µM (inactive)	4.47	8.97 µM (inactive)	6.82 µM (inactive)	2.43 µM (inactive)	3.37 µM (inactive)	5.27 µM (inactive)	3.63 µM (inactive)	3.58 µM (inactive)	13.5 µM (inactive)	12.9 µM (inactive)	5.37 µM (inactive)	2.96 µM (inactive)	9.68 µM (inactive)	14.4 µM (inactive)	5.37 µM (inactive)	2.76 µM (inactive)

From ChEMBL document CHEMBL1201862, “PubChem BioAssay data set” (2004)
